Experimental findings from patent US9783490B2, “Antimicrobial compounds, their synthesis and applications thereof” (The Secretary of State for Health, priority 2012, dated 2017) are described below.

For one series, the system named is human RBCs. Put plainly: Haemolytic activity (HC50). It counts as cell-based. Here is the method:
Erythrocytes are isolated from freshly drawn, heparinized human blood and re-suspended to 5 vol % in PBS (pH 7.4). In a 96-well microtiter plate, 150 μl of erythrocyte suspension is added to 50 μl of serially diluted compound. Two controls are made, one without compound and other with 50 μl of 1 vol % solution of Triton X-100. The plate is incubated for about 1 hr at a temperature of about 37° C. The plate is then centrifuged at 3,500 rpm for about 5 min, 100 μl of the supernatant from each well is transferred to a fresh microtiter plate, and absorbance at 540 nm is measured. Percentage of hemolysis is determined as (A−A0)/(Atotal−A0)×100, where A is the absorbance of the test well, A0 the absorbance of the negative controls (without compound), and A total the absorbance of 100% hemolysis wells (with Triton X-100), when absorbance is read at 540 nm.
Toxicity studies of the compounds are carried out on freshly drawn human RBCs. Toxicity of the antimicrobial compounds of the present disclosure is defined by their HC50 values illustrated in Table 3, i.e. the concentration of compound at which 50% of the blood cells are lysed. Haemolytic studies conducted herein illustrates that the antimicrobial compounds provided by the instant disclosure are selective towards drug sensitive bacteria and drug resistant bacteria over human RBCs, thus establishing the non-toxicity of the present compounds.

A further series concerns S. aureus (MTCC 737). Briefly: Minimum Inhibitory Concentration, micro-dilution broth. It counts as cell-based, Staphylococcus aureus. The note with it: for Minimum Inhibitory Concentration S. aureus: Drug sensitive bacteria. As to the method:
(§1) Microorganisms and Culture Conditions: Bacterial strains, S. aureus (MTCC 737) and E. coli (MTCC 443) are purchased from MTCC (Chandigarh, India). MRSA (ATCC 33591), Pseudomonas aeruginosa (ATCC 4676), […]-lactamase producing and drug-resistant Klebsiella pneumonia (ATCC700603), Enterococcus faecium (ATCC 19634) and vancomycin resistant Enterococcus faecium (ATCC 51559) are obtained from ATCC (Rockville, Md., USA).
(§2) E. coli is cultured in Luria Bertani broth (10 g of tryptone, 5 g of yeast extract, and 10 g of NaCl in 1000 mL of sterile distilled water (pH −7) while S. aureus, Pseudomonas aeruginosa (ATCC 4676) and MRSA are grown in Yeast-dextrose broth (1 g of beef extract, 2 g of yeast extract, 5 g of peptone and 5 g of NaCl in 1000 mL of sterile distilled water). For all Enterococcus faecium, Brain Heart Infusion broth (BHI) is used. For solid media 5% agar was used along with above mentioned composition. K. pneumonia was grown in nutrient media (3 g of beef extract and 5 g of peptone in 1000 mL of sterile distilled water). The bacterial samples were freeze dried and stored at −80° C. 5 μl of these stocks were added to 3 mL of the nutrient broth and the culture was grown for 6 h at 37° C. prior to the experiments.
(§3) Antibacterial activity is reported as Minimum Inhibitory Concentration (MIC), i.e. the lowest concentration of the antimicrobial agent that will inhibit the growth of a microorganism after overnight incubation. Water-soluble ACK, NCK and BCK series of compounds are assayed in a modified micro-dilution broth format. Stock solutions are made by serially diluting the compounds using autoclaved Millipore water. Bacteria, to be tested are grown for about 6 hrs in the suitable media containing ˜10^9 cfu/mL (determined through dilution plate technique by spread plate method), which is then diluted to 10^5 cfu/mL using nutrient media. 50 μL of serially diluted compound is added to a 96 well plate containing 150 μL bacterial solutions. Two controls are made; one containing 150 μL of media and 50 μL of compound and the other containing 200 μL of bacterial solution. […] MIC value is determined by taking the average of triplicate O.D. values for each concentration and plotting it against concentration using Origin Pro 8.0 software. The data is then subjected to sigmoidal fitting. From the curve, MIC value is determined, as the point in the curve where the O.D. is similar to that of control having no bacteria. The MIC values and errors of independent experiments are reported as average and standard deviation of triplicates.
Background: In broth dilution the organism is exposed to a series of concentrations in liquid medium.

A further series concerns E. coli (MTCC 443). The series is described as above. The conditions noted are these: for Minimum Inhibitory Concentration E. coli: Drug sensitive bacteria. In kind it is cell-based, Escherichia coli. Here is the method:
as §1, §2, §3

The subject of the next series is bacteria. Briefly: Minimum inhibitory concentration, bacterium not given. It counts as cell-based. As to the method: as §3
In series [1] the test system is drug-resistant Klebsiella pneumonia (ATCC700603). Put plainly: Minimum Inhibitory Concentration, micro-dilution broth. In kind it is cell-based. The note with it: for Minimum Inhibitory Concentration K. pneumonia: Drug resistant bacteria. Here is the method:
as §1, §2, §3

Series [2] has as its system Enterococcus faecium (ATCC 19634). The series is described as above. It counts as cell-based. The conditions noted are these: for Minimum Inhibitory Concentration E. faecium: Drug sensitive bacteria. Here is the method: as §1, §2, §3
In series [3] the test system is vancomycin resistant Enterococcus faecium (ATCC 51559). The description is as above. In kind it is cell-based. The note with it: for Minimum Inhibitory Concentration VRE: Drug resistant bacteria. Here is the method:
as §1, §2, §3

The test system of series [4] is Pseudomonas aeruginosa (ATCC 4676). Described as above. In kind it is cell-based. The note with it: for Minimum Inhibitory Concentration P. aeruginosa: Drug sensitive bacteria. As to the method: as §1, §2, §3
The next series has as its system MRSA (ATCC 33591). The series is described as above. It counts as cell-based, Methicillin resistant S. aureus. The note with it: for Minimum Inhibitory Concentration MRSA: Drug resistant bacteria. As to the method:
as §1, §2, §3

Setting [5] is: concentration at which 50% of the blood cells are lysed, human RBCs.

Read-outs that look alike come from different tables or passages of the source. Some results are limits rather than exact numbers.

For orientation: HC50 means the concentration that lyses half of the red blood cells. A lower HC50 goes with stronger haemolysis. With Lys-N-octylaminodecane [Dec-CK-8], in the series on human RBCs, the HC50 amounted to 82 µg/mL and the “HC50 values” stood at 82 µg/mL. Moreover, the “Minimum Inhibitory Concentration S. aureus” value in the series on S. aureus (MTCC 737) is 3.1 µg/mL. Also, in the series on E. coli (MTCC 443), the “Minimum Inhibitory Concentration E. coli” value is 3.1 µg/mL. Also, the “active concentration against all bacteria” value in the series with bacteria was “below 5.6 μg/ml”. Moreover, in series [1], the “Minimum Inhibitory Concentration K. pneumonia” value is 5.6 µg/mL. In addition, in series [2], the “MIC value against E. faecium” value was determined as 3 µg/mL and the “Minimum Inhibitory Concentration E. faecium” value amounted to 3 µg/mL. Also, the “Minimum Inhibitory Concentration VRE” value in [3] was determined as 3.3 µg/mL. Further, in series [4], the “Minimum Inhibitory Concentration P. aeruginosa” value was determined as 4.2 µg/mL. Besides, in the series with MRSA (ATCC 33591), the “MIC value against methicillin-resistant S. aureus” value worked out at 3 µg/mL and the “Minimum Inhibitory Concentration MRSA” value was determined as 3 µg/mL.

`CCCCN(Cc1cccc2ccccc12)C(=O)C(N)CCCCN.O=C(O)C(F)(F)F` (centres unmarked) [NCK-4, Lys-N-butyl-1-Aminomethylnaphthalene trifluoroacetate] returned an HC50 with human RBCs (setting [5]) of over 1000 µg/mL. Also, the “Minimum Inhibitory Concentration S. aureus” value in the series on S. aureus (MTCC 737) was over 100 µg/mL. Further, in the series with E. coli (MTCC 443), the “Minimum Inhibitory Concentration E. coli” value was over 100 µg/mL. Moreover, the “Minimum Inhibitory Concentration K. pneumonia” value in series [1] is over 100 µg/mL. In addition, in [2], the “Minimum Inhibitory Concentration E. faecium” value was over 100 µg/mL. Moreover, the “Minimum Inhibitory Concentration VRE” value in series [3] was over 100 µg/mL. Moreover, in series [4], the “Minimum Inhibitory Concentration P. aeruginosa” value was over 100 µg/mL. In addition, the “Minimum Inhibitory Concentration MRSA” value with MRSA (ATCC 33591) is over 100 µg/mL.

With `CCCCCCCCCCCCN(Cc1cccc2ccccc12)C(=O)[C@@H](N)CCCCN.O=C(O)C(F)(F)F` [NCK-12, Lys-N-dodecyl-1-Aminomethylnaphthalene trifluoroacetate], the HC50 in the series on human RBCs (setting [5]) is 56 µg/mL. Besides, in the series on S. aureus (MTCC 737), the “MIC value against S. aureus” value is about 3 µg/mL and the “Minimum Inhibitory Concentration S. aureus” value turned out to be 3 µg/mL. In addition, in the series with E. coli (MTCC 443), the “MIC value against E. coli” value is about 3.1 µg/mL and the “Minimum Inhibitory Concentration E. coli” value came out at 3.1 µg/mL. In series [1], the “MIC value against K. pneumonia” value is about 4 µg/mL and the “Minimum Inhibitory Concentration K. pneumonia” value amounted to 4 µg/mL. In series [2], the “MIC value against E. faecium” value was about 1.6 µg/mL and the “Minimum Inhibitory Concentration E. faecium” value was 1.6 µg/mL. In series [3], the “MIC value against vancomycin-resistant E. faecium” value is about 3.4 µg/mL and the “Minimum Inhibitory Concentration VRE” value was 3.4 µg/mL. Besides, in [4], the “MIC value against P. aeruginosa” value is about 3.2 µg/mL and the “Minimum Inhibitory Concentration P. aeruginosa” value was 3.2 µg/mL. Further, in the series with MRSA (ATCC 33591), the “MIC value against methicillin-resistant S. aureus” value was about 2.7 µg/mL and the “Minimum Inhibitory Concentration MRSA” value was 2.7 µg/mL.

As for `CCCCCCN(Cc1c2ccccc2c(Cl)c2ccccc12)C(=O)C(N)CCCCN.O=C(O)C(F)(F)F` (centres unmarked) [ACK-6, Lys-N-hexyl-10-Aminomethyl-9-chloroanthracene trifluoroacetate], the concentration for 50% haemolysis (HC50) in the series on human RBCs (setting [5]) worked out at 82 µg/mL. Further, in the series with S. aureus (MTCC 737), the “MIC value against S. aureus” value was about 2.4 µg/mL and the “Minimum Inhibitory Concentration S. aureus” value worked out at 2.4 µg/mL. For the same molecule, in the series on E. coli (MTCC 443), the “MIC value against E. coli” value is about 3.5 µg/mL and the “Minimum Inhibitory Concentration E. coli” value worked out at 3.5 µg/mL. For the same molecule, in [1], the “MIC value against K. pneumonia” value was about 16 µg/mL and the “Minimum Inhibitory Concentration K. pneumonia” value came out at 16 µg/mL. Further, in [2], the “MIC value against E. faecium” value is about 3.3 µg/mL and the “Minimum Inhibitory Concentration E. faecium” value is 3.3 µg/mL. In addition, in series [3], the “MIC value against vancomycin-resistant E. faecium” value was about 5.2 µg/mL and the “Minimum Inhibitory Concentration VRE” value is 5.2 µg/mL. For the same molecule, in [4], the “MIC value against P. aeruginosa” value was about 1.6 µg/mL and the “Minimum Inhibitory Concentration P. aeruginosa” value is 1.6 µg/mL. Further, in the series with MRSA (ATCC 33591), the “MIC value against methicillin-resistant S. aureus” value is about 2.8 µg/mL and the “Minimum Inhibitory Concentration MRSA” value was found to be 2.8 µg/mL.
